Experimental data: patent US9765074B2, “Inhibitors of the renal outer medullary potassium channel” (Merck Sharp & Dohme Corp., priority 2013, dated 2017)

Each compound was assayed against T1, hROMK (hKir1.1) (Homo sapiens, UniProt P48048) (assay: Thallium Flux Assay (ROMK channel functional thallium flux, FLIPR-Tetra)). Conditions: HEK293 cells stably expressing hROMK (hKir1.1); 30 min compound incubation.
T1 construct: expressed in transfected cells
T1 sequence (P48048 1-391): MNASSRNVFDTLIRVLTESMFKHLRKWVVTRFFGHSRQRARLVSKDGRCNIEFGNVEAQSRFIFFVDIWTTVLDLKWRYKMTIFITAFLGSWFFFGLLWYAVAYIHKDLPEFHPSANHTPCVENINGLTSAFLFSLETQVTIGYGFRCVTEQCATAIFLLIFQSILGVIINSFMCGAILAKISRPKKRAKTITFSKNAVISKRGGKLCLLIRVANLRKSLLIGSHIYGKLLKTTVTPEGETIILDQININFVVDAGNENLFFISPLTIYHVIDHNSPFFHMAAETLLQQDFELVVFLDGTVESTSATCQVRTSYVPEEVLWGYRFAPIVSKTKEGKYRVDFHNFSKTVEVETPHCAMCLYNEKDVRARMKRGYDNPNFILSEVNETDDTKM
Assay type: cell-based
Procedure, shortened: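 HEK293 cells stably expressing hKir1.1, loaded with FluxOR dye for 90 min, then preincubated with compound for 30 min at ambient temperature with 0.3 mM ouabain and probenecid. Stimulated with 3 mM thallium/0.3 mM potassium (final); fluorescence read ~10 min. Normalized to 3 μM reference ROMK inhibitor; IC50 from inhibition of flux.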

Row | Structure (SMILES) | IC50 [µM]
1 | CC1=C(N2CCC3(CC4COCC(C3)N4CCc3ccc(-n4cnnn4)nn3)C2=O)COC1=O [Example 239, (1R,5S,9r)-1′-(4-methyl-5-oxo-2,5-(dihydrofuran-3-yl)-2′-oxo-9-{2-[6-(1H-tetrazol-1-yl)pyridazin-3-yl]ethyl}spiro[7-oxa-9-azoniabicyclo[3.3.1]nonane-3,3′-pyrrolidine]] | 0.32
2 | CC1=C(N2CCC3(CC4CCC(C3)N4C[C@@H](O)c3cc(C)c(-n4cnnn4)nn3)C2=O)COC1=O (stereo partly drawn) [Example 54, (1R,5R)-8-{(2R)-2-hydroxy-2-[5-methyl-6-(1H-tetrazol-1-yl)pyridazin-3-yl]ethyl}-1′-(4-methyl-5-oxo-2,5-dihydrofuran-3-yl)-2′-oxospiro[8-azoniabicyclo[3.2.1]octane-3,3′-pyrrolidine]] | 0.02
3 | CC1=C(N2C=CC3(CCN(C[C@@H](O)c4ccc(-n5cnnn5)nc4)CC3)C2=O)COC1=O [Example 156, 8-{(2S)-2-hydroxy-2-[6-(1H-tetrazol-1-yl)pyridin-3-yl]ethyl}-2-(4-methyl-5-oxo-2,5-dihydrofuran-3-yl)-1-oxo-2-aza-8-azoniaspiro[4.5]dec-3-ene] | 0.02
4 | CC1=C(N2C=CC3(CCN([C@@H](C)Cc4nnc(-n5cnnn5)cc4C)CC3)C2=O)COC1=O (single isomer, unassigned) [Example 274] | 0.01
5 | CC1=C(N2CCC3(CC4CCC(C3)N4C[C@H](O)c3ccc(-n4cnnn4)nn3)C2=O)COC1=O (stereo partly drawn) [Example 52, (1R,5R)-8-{(2S)-2-hydroxy-2-[6-(1H-tetrazol-1-yl)pyridazin-3-yl]ethyl}-1′-(4-methyl-5-oxo-2,5-dihydrofuran-3-yl)-2′-oxospiro[8-azoniabicyclo[3.2.1]octane-3,3′-pyrrolidine]] | 0.01
6 | CC1=C(N2C(=O)C3(CCN(C[C@@H](O)c4cnc(-n5cnnn5)cn4)CC3)CC2C)COC1=O (single isomer, unassigned) [Example 68] | 0.23
7 | C[C@@H]1CC2(CCN(C[C@@H](O)c3ccc(-n4cnnn4)nc3)CC2)C(=O)N1C1=CC(=O)OC1 [Example 84, (3R)-8-{(2S)-2-hydroxy-2-[6-(1H-tetrazol-1-yl)pyridin-3-yl]ethyl}-3-methyl-1-oxo-2-(5-oxo-2,5-dihydrofuran-3-yl)-2-aza-8-azoniaspiro[4.5]decane] | 0.01
8 | CC1=C(N2CCC3(CCN(C[C@H](O)c4cnc(-n5cnnn5)c(C)n4)CC3)C2=O)COC1=O [Example 87, 8-{(2S)-2-hydroxy-2-[6-methyl-5-(1H-tetrazol-1-yl)pyrazin-2-yl]ethyl}-2-(4-methyl-5-oxo-2,5-dihydrofuran-3-yl)-1-oxo-2-aza-8-azoniaspiro[4.5]decane] | 0.05
9 | CC1=C(N2CCC3(CCN(C[C@@H](O)c4ncc(-n5cnnn5)cc4C)CC3)C2=O)COC1=O [Example 29, 8-{(2R)-2-hydroxy-2-[3-methyl-5-(1H-tetrazol-1-yl)pyridin-2-yl]ethyl}-2-(4-methyl-5-oxo-2,5-dihydrofuran-3-yl)-1-oxo-2-aza-8-azoniaspiro[4.5]decane] | 0.04
10 | CC1=C(N2CCC3(CC4CN(C)CC(C3)N4C[C@H](O)c3ccc(-n4cnnn4)nc3)C2=O)COC1=O (stereo partly drawn) [Example 112, (1R,5R,7R,9R)-9-{(2R)-2-hydroxy-2-[6-(1H-tetrazol-1-yl)pyridin-3-yl]ethyl}-7-methyl-1′-(4-methyl-5-oxo-2,5-dihydrofuran-3-yl)-2′-oxospiro[7,9-diazoniabicyclo[3.3.1]nonane-3,3′-pyrrolidine]] | 0.41
11 | COC1CN(C2=C(C)C(=O)OC2)C(=O)C12CC1CCC(C2)N1C[C@H](O)c1ccc(-n2cnnn2)nc1 (single isomer, unassigned) [Example 159] | 0.04
12 | CC1=C(N2CCC3(CC4CCC(C3)N4C[C@H](O)c3nnc(-n4cnnn4)c(C)c3C)C2=O)COC1=O (stereo partly drawn) [Example 50, (1R,5R)-8-{(2S)-2-[4,5-dimethyl-6-(1H-tetrazol-1-yl)pyridazin-3-yl]-2-hydroxyethyl}-1′-(4-methyl-5-oxo-2,5-dihydrofuran-3-yl)-2′-oxospiro[8-azoniabicyclo[3.2.1]octane-3,3′-pyrrolidine]] | 0.02
13 | O=C1C=C(N2C=CC3(CCN(C[C@H](O)c4ccc(-n5cnnn5)nc4)CC3)C2=O)CO1 [Example 151, 8-{(2R)-2-hydroxy-2-[6-(1H-tetrazol-1-yl)pyridin-3-yl]ethyl}-1-oxo-2-(5-oxo-2,5-dihydrofuran-3-yl)-2-aza-8-azoniaspiro[4.5]dec-3-ene] | 0.03

The remaining compounds from weak to strong by IC50, led by results:

Row | IC50 [µM] | Structure (SMILES)
14 | 0.15 | CC1=C(N2CCC3(CCN(C[C@H](O)c4ccc(-n5cnnn5)nc4C)CC3O)C2=O)COC1=O (single isomer, unassigned) [Example 203]
15 | 0.08 | CC1=C(N2CCC3(CCN(CCc4cnc(-n5cnnn5)cc4CO)CC3)C2=O)COC1=O [Example 250, 8-{2-[4-(hydroxymethyl)-6-(1H-tetrazol-1-yl)pyridin-3-yl]ethyl}-2-(4-methyl-5-oxo-2,5-dihydrofuran-3-yl)-1-oxo-2-aza-8-azoniaspiro[4.5]decane]
16 | 0.08 | CC1=C(N2CCC3(CCN(C[C@H](O)c4cc(C)c(-n5cnnn5)nn4)CC3)C2=O)COC1=O [Example 128, 8-{(2S)-2-hydroxy-2-[5-methyl-6-(1H-tetrazol-1-yl)pyridazin-3-yl]ethyl}-2-(4-methyl-5-oxo-2,5-dihydrofuran-3-yl)-1-oxo-2-aza-8-azoniaspiro[4.5]decane]
17 | 0.07 | CC1=C(N2CCC3(CCN(C[C@H](O)c4cccc(-n5cnnn5)c4)CC3)C2=O)COC1=O [Example 61, 8-{(2R)-2-hydroxy-2-[3-(1H-tetrazol-1-yl)phenyl]ethyl}-2-(4-methyl-5-oxo-2,5-dihydrofuran-3-yl)-1-oxo-2-aza-8-azoniaspiro[4.5]decane]
18 | 0.07 | CC1=C(N2CCC3(CCN(C[C@@H](O)c4ccc(-n5cnnn5)c(C#N)c4)CC3)C2=O)COC1=O [Example 96, 8-{(2S)-2-[3-cyano-4-(1H-tetrazol-1-yl)phenyl]-2-hydroxyethyl}-2-(4-methyl-5-oxo-2,5-dihydrofuran-3-yl)-1-oxo-2-aza-8-azoniaspiro[4.5]decane]
19 | 0.04 | CC1=C(N2CCC3(CCN(C[C@@H](O)c4cnc(-n5cnnn5)nc4C)CC3)C2=O)COC1=O [Example 86, 8-{(2S)-2-hydroxy-2-[4-methyl-2-(1H-tetrazol-1-yl)pyrimidin-5-yl]ethyl}-2-(4-methyl-5-oxo-2,5-dihydrofuran-3-yl)-1-oxo-2-aza-8-azoniaspiro[4.5]decane]
20 | 0.04 | CC1=C(N2C(=O)C3(CCN(C[C@@H](O)c4ccc(-n5cnnn5)nc4)CC3)CC2C)COC1=O (single isomer, unassigned) [Example 63]
21 | 0.02 | O=C1C=C(N2CCC3(CCN(C[C@@H](O)c4ccc(-n5cnnn5)cc4F)CC3)C2=O)CO1 [Example 14, 8-{(2S)-2-[2-fluoro-4-(1H-tetrazol-1-yl)phenyl]-2-hydroxyethyl}-1-oxo-2-(5-oxo-2,5-dihydrofuran-3-yl)-2-aza-8-azoniaspiro[4.5]decane]
22 | 0.02 | CC1=C(N2CCC3(CCN(C[C@H](O)c4ccc(-n5cnnn5)nn4)CC3)C2=O)COC1=O [Example 32, 8-{(2S)-2-hydroxy-2-[6-(1H-tetrazol-1-yl)pyridazin-3-yl]ethyl}-2-(4-methyl-5-oxo-2,5-dihydrofuran-3-yl)-1-oxo-2-aza-8-azoniaspiro[4.5]decane]
23 | 0.01 | CC1=C(N2CCC3(CCN(C(C)(C)C(O)c4ccc(-n5cnnn5)nc4)CC3)C2=O)COC1=O (single isomer, unassigned) [Example 297]
24 | 0.01 | O=C1C=C(N2C(=O)C3(CCN(C[C@H](O)c4cnc(-n5cnnn5)cn4)CC3)CC23CC3)CO1 [Example 167, 8-{(2S)-2-hydroxy-2-[5-(1H-tetrazol-1-yl)pyrazin-2-yl]ethyl}-12-(5-oxo-2,5-dihydrofuran-3-yl)-8,12-diazadispiro[2.1.5.2]dodecan-11-one]
25 | 0.01 | Cc1cc(-n2cnnn2)ccc1[C@H](O)CN1CCC2(CC1)CCN(C1=CC(=O)OC1)C2=O [Example 12, 8-{(2S)-2-hydroxy-2-[2-methyl-4-(1H-tetrazol-1-yl)phenyl]ethyl}-1-oxo-2-(5-oxo-2,5-dihydrofuran-3-yl)-2-aza-8-azoniaspiro[4.5]decane]
26 | 0.01 | CCC1CC2(CCN(C[C@H](O)c3ccc(-n4cnnn4)nc3)CC2)C(=O)N1C1=CC(=O)OC1 (mixture of isomers) [Example 218, 3-ethyl-8-{(2R)-2-hydroxy-2-[6-(1H-tetrazol-1-yl)pyridin-3-yl]ethyl}-2-(5-oxo-2,5-dihydrofuran-3-yl)-2,8-diazaspiro[4.5]decan-1-one]
27 | 0.01 | CC1=C(N2CCC3(CCN([C@@H](C)Cc4ccc(-n5cnnn5)nn4)CC3)C2=O)COC1=O (single isomer, unassigned) [Example 293]
28 | 0.01 | C[C@H]1CC2(CCN(C[C@@H](O)c3cnc(-n4cnnn4)cn3)CC2)C(=O)N1C1=CC(=O)OC1 [Example 78, (3S)-8-{(2R)-2-hydroxy-2-[5-(1H-tetrazol-1-yl)pyrazin-2-yl]ethyl}-3-methyl-1-oxo-2-(5-oxo-2,5-dihydrofuran-3-yl)-2-aza-8-azoniaspiro[4.5]decane]
29 | 0.004 | CC1=C(N2CCC3(CCN(CCc4nnc(-n5cnnn5)cc4C)CC3)C2=O)COC1=O [Example 236, 2-(4-methyl-5-oxo-2,5-dihydrofuran-3-yl)-8-{2-[4-methyl-6-(1H-tetrazol-1-yl)pyridazin-3-yl]ethyl}-1-oxo-2-aza-8-azoniaspiro[4.5]decane]
